# Assay results: patent US20220220103A1, “CYCLIN-DEPENDENT KINASE INHIBITORS” (SPV THERAPEUTICS INC., priority 2018, published 2022)
# pIC50: −log10 of the molar value. Read-outs that look alike come from different tables or passages of the source.
# Experiments:
# Assay type in all cases: biochemical
# CDK1/B = CDK1/B (Homo sapiens, UniProt P06493); assay: Inhibition assay, CDK1/B
# Experimental: (§1) The reaction was terminated by the addition of EDTA. The plates were analyzed using a Caliper LabChip 3000.
# (§2) Additional inhibition assays were performed as described above.
# CDK9-CYCLINT1 = CDK9-CYCLINT1 (Homo sapiens, UniProt P50750); assay: Microfluidic LabChip inhibition assay, CDK9-CYCLINT1; conditions: ATP 10 μM
# CDK9-CYCLINT1, sequence (P50750 whole entry): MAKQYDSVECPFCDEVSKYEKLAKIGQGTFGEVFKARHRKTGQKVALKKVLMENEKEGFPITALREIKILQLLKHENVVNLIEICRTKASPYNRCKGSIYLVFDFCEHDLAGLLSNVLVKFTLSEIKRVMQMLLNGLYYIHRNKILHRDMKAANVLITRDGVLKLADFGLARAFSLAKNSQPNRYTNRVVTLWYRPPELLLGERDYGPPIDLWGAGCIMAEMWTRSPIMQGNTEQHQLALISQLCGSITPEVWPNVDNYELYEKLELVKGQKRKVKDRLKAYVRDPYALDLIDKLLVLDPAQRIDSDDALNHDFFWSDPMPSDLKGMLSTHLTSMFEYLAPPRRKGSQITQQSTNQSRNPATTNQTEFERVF
# CDK9-CYCLINT1, sequence (O60563 whole entry partner): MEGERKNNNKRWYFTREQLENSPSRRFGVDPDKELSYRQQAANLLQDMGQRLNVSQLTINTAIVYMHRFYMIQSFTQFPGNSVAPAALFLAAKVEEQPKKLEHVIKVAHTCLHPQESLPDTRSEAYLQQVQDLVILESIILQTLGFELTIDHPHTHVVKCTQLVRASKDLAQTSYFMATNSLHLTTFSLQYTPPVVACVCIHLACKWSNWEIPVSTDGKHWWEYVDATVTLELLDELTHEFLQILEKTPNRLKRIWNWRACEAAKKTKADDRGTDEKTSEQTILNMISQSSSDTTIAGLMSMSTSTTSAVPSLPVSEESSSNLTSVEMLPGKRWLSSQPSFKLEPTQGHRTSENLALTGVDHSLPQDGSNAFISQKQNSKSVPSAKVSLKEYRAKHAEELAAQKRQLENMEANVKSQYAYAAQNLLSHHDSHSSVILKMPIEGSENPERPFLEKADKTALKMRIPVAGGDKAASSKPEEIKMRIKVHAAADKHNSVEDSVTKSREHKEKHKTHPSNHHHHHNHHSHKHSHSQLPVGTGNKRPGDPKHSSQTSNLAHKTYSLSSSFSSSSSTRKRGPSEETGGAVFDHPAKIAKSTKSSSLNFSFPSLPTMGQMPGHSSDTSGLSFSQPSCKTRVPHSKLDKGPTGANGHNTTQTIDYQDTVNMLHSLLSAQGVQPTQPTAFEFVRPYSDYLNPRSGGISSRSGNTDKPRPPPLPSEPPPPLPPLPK
# Experimental: as §1, §2
# CDK7 CyclinH = CDK7 CyclinH (Homo sapiens, UniProt P50613); assay: Inhibition assay, CDK7 CyclinH
# CDK7 CyclinH, sequence (P50613 whole entry): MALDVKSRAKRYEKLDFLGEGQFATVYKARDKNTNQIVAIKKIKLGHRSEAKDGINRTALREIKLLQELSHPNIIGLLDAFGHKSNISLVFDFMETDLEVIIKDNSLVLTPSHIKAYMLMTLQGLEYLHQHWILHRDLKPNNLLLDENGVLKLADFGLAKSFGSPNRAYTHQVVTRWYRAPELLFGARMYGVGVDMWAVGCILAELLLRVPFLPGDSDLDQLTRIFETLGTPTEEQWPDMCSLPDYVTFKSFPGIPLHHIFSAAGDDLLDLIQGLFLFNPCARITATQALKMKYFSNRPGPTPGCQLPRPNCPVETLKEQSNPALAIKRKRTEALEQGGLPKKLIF
# CDK7 CyclinH, sequence (P51946 whole entry partner): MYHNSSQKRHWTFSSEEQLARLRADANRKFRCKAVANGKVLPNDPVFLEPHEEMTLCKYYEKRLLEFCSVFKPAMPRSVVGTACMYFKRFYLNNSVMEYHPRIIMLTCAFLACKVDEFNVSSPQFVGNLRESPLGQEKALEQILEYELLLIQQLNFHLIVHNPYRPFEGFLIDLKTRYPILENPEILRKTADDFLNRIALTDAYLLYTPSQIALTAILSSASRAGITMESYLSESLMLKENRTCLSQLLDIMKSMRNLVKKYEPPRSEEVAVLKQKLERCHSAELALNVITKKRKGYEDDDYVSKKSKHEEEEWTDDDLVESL
# CDK7 CyclinH, sequence (P51948 whole entry partner): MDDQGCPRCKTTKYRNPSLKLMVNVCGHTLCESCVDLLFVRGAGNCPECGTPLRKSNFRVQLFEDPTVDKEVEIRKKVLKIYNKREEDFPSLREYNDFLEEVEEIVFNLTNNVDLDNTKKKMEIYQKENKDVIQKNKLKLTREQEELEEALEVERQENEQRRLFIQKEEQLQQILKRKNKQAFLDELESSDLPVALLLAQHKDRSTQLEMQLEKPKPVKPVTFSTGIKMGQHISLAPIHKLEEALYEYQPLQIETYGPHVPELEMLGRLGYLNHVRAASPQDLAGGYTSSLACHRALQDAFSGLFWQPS
# Experimental: as §1, §2
# CDK2-CYCLINA = CDK2-CYCLINA (Homo sapiens, UniProt P24941); assay: Microfluidic LabChip inhibition assay, CDK2-CYCLINA; conditions: ATP 50 μM
# Experimental: as §1, §2
# CDK4-CYCLIND1 = CDK4-CYCLIND1 (Homo sapiens, UniProt P11802); assay: Microfluidic LabChip inhibition assay, CDK4-CYCLIND1; conditions: ATP 200 μM, second values in parentheses on the line below, not explained, read-out: CDK4 CyclinD1 IC50
# CDK4-CYCLIND1, sequence (P11802 whole entry): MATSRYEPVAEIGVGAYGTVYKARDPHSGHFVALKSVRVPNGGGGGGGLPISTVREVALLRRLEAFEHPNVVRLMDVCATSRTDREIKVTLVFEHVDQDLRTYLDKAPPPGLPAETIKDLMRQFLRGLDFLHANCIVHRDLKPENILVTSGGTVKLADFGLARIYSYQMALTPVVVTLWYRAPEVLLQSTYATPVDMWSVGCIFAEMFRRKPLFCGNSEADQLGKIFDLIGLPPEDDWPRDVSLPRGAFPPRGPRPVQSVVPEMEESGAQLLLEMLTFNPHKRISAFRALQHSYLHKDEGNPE
# CDK4-CYCLIND1, sequence (P24385 whole entry partner): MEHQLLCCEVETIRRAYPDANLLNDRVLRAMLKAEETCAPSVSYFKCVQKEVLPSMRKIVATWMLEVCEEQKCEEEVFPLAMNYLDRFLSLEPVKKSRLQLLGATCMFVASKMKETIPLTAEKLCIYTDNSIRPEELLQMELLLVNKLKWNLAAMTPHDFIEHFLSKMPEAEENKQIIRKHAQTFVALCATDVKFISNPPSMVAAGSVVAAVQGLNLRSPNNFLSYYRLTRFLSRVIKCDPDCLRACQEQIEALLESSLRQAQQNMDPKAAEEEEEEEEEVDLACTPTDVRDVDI
# Experimental: as §1, §2
# [1] = Table 3a, read-out: CDK1/B IC50
# [2] = Table 3b, read-out: CDK1/B IC50
# CDK1/B, sequence (P06493 whole entry): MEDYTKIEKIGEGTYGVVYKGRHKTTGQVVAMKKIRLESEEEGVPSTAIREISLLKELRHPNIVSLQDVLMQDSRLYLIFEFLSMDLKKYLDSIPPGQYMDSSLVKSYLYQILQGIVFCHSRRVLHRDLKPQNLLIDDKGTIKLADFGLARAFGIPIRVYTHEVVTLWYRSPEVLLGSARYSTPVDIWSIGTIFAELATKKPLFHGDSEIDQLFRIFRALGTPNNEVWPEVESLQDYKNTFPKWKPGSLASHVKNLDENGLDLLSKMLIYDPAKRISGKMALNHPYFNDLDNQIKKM
# CDK1/B, sequence (P14635 whole entry partner): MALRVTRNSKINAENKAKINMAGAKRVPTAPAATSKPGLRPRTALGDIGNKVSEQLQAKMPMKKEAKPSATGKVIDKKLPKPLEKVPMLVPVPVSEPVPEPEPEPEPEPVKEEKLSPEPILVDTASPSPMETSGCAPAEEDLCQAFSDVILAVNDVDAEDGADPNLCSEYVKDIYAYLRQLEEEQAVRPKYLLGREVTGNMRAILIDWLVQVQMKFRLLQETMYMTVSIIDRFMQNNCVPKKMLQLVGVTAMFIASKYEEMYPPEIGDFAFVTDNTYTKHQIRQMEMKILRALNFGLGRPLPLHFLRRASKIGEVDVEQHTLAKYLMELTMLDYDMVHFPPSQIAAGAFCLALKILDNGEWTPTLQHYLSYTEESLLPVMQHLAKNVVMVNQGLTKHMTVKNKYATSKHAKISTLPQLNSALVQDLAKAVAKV
pIC50 (CDK1/B; [1]),pIC50 (CDK1/B; [2]),pIC50 (CDK9-CYCLINT1; Table 3a),pIC50 (CDK9-CYCLINT1; Table 3b),pIC50 (CDK7 CyclinH; Table 3a),pIC50 (CDK7 CyclinH; Table 3b),pIC50 (CDK2-CYCLINA; Table 3a),pIC50 (CDK2-CYCLINA; Table 3b),pIC50 (CDK4-CYCLIND1; Table 3a),pIC50 (CDK4-CYCLIND1; Table 3b),pIC50 (CDK1/B),SMILES
< 5.00,< 5.00,6.37,6.37,< 5.00,< 5.00,< 5.00,< 5.00,7.82,7.82,–,"CC(=O)c1c(C)c2cnc(Nc3ccc(OCCN4CCCC4)cn3)nc2n(C2CCCC2)c1=O [Compound B66, 6-acetyl-8-cyclopentyl-5-methyl-2-((5-(2-(pyrrolidin-1-yl)ethoxy)pyridin-2-yl)amino)pyrido[2,3-d]pyrimidin-7(8H)-one]"
< 5.00,< 5.00,5.29,5.29,< 5.00,< 5.00,< 5.00,< 5.00,8.05,8.05,–,"Cc1c(C(=O)N(C)C)c(=O)n(C2CCCC2)c2nc(Nc3ccc(N4CC(C)NC(C)C4)cc3)ncc12 (stereo not drawn) [Compound B151, 8-cyclopentyl-2-((4-(3,5-dimethylpiperazin-1-yl)phenyl)amino)-N,N,5-trimethyl-7-oxo-7,8-dihydropyrido[2,3-d]pyrimidine-6-carboxamide]"
6.30,–,–,–,6.18,6.18,6.71,6.71,> 8.49,> 8.49,–,"CC(=O)c1c(C)c2cnc(Nc3ccc(N4CC(C)NC(C)C4)cc3)nc2n(C2CCCC2)c1=O (stereo not drawn) [Compound B150, 6-acetyl-8-cyclopentyl-2-((4-(3,5-dimethylpiperazin-1-yl)phenyl)amino)-5-methylpyrido[2,3-d]pyrimidin-7(8H)-one]"
< 5.00,< 5.00,6.13,6.13,< 5.00,< 5.00,< 5.00,< 5.00,6.30,6.30,–,"CN(C)CCOc1ccc(Nc2ncc3cc(C#N)c(=O)n(C45CC(C4)C5)c3n2)nc1 [Compound B149, 8-(bicyclo[1.1.1]pentan-1-yl)-2-((5-(2-(dimethylamino)ethoxy)pyridin-2-yl)amino)-7-oxo-7,8-dihydropyrido[2,3-d]pyrimidine-6-carbonitrile]"
6.28,–,> 8.49,> 8.49,6.19,6.19,6.68,6.68,> 8.49,> 8.49,–,"CC(=O)c1c(C)c2cnc(Nc3ccc(OCCN(C)C)cc3)nc2n(C2CCCC2)c1=O [Compound B59, 6-acetyl-8-cyclopentyl-2-((4-(2-(dimethylamino)ethoxy)phenyl)amino)-5-methylpyrido[2,3-d]pyrimidin-7(8H)-one]"
6.29,–,7.56,7.56,6.49,6.49,6.51,6.51,> 8.49,> 8.49,–,"N#Cc1cc2cnc(Nc3ccc(N4CCN(CCO)CC4)c(F)c3)nc2n(C2CCCC2)c1=O [Compound B106, 8-cyclopentyl-2-((3-fluoro-4-(4-(2-hydroxyethyl)piperazin-1-yl)phenyl)amino)-7-oxo-7,8-dihydropyrido[2,3-d]pyrimidine-6-carbonitrile]"
5.55,–,< 5.00,< 5.00,< 5.00,< 5.00,5.99,5.99,7.00,7.00,–,"Cc1c(C(=O)N(C)C)c(=O)n(C23CC(C2)C3)c2nc(NC3CCN(S(C)(=O)=O)CC3)ncc12 [Compound B156, 8-(bicyclo[1.1.1]pentan-1-yl)-N,N,5-trimethyl-2-((1-(methylsulfonyl)piperidin-4-yl)amino)-7-oxo-7,8-dihydropyrido[2,3-d]pyrimidine-6-carboxamide]"
6.12,–,5.34,5.34,< 5.00,< 5.00,6.55,6.55,7.67,7.67,–,"CN(C)C(=O)c1cc2cnc(NC3CCN(S(C)(=O)=O)CC3)nc2n(C2CCCC2)c1=O [Compound B153, 8-cyclopentyl-N,N-dimethyl-2-((1-(methylsulfonyl)piperidin-4-yl)amino)-7-oxo-7,8-dihydropyrido[2,3-d]pyrimidine-6-carboxamide]"
< 5.00,< 5.00,< 5.00,< 5.00,< 5.00,< 5.00,< 5.00,< 5.00,< 5.00,< 5.00,–,"CS(=O)(=O)N1CCC(Nc2ncc3cc(C#N)c(=O)n(C45CC(C4)C5)c3n2)CC1 [Compound B113, 8-(bicyclo[1.1.1]pentan-1-yl)-2-((1-(methylsulfonyl)piperidin-4-yl)amino)-7-oxo-7,8-dihydropyrido[2,3-d]pyrimidine-6-carbonitrile]"
< 5.00,< 5.00,5.61,5.61,< 5.00,< 5.00,5.28,5.28,5.90,5.90,–,"Cc1c(C(=O)N(C)C)c(=O)n(C23CC(C2)C3)c2nc(NC3CC4CCC3C4)ncc12 (stereo not drawn) [Compound B157, 8-(bicyclo[1.1.1]pentan-1-yl)-2-(bicyclo[2.2.1]heptan-2-ylamino)-N,N,5-trimethyl-7-oxo-7,8-dihydropyrido[2,3-d]pyrimidine-6-carboxamide]"
–,–,6.98,6.98,6.13,6.13,7.82,7.82,8.48,8.48,7.32,"CS(=O)(=O)N1CCC(Nc2ncc3cc(C#N)c(=O)n(C4CCCC4)c3n2)CC1 [Compound B152, 8-cyclopentyl-2-((1-(methylsulfonyl)piperidin-4-yl)amino)-7-oxo-7,8-dihydropyrido[2,3-d]pyrimidine-6-carbonitrile]"
5.89,–,7.04,7.04,5.62,5.62,6.30,6.30,8.40,8.40,–,"CN1CC2(C1)CN(c1ccc(Nc3ncc4cc(C#N)c(=O)n(C5CCCC5)c4n3)cc1)C2 [Compound B159, 8-cyclopentyl-2-((4-(6-methyl-2,6-diazaspiro[3.3]heptan-2-yl)phenyl)amino)-7-oxo-7,8-dihydropyrido[2,3-d]pyrimidine-6-carbonitrile]"
< 5.00,< 5.00,5.91,5.91,< 5.00,< 5.00,< 5.00,< 5.00,7.32,7.32,–,"CC(=O)c1c(C)c2cnc(Nc3ccc(N4CCN(C)CC4)cn3)nc2n(C23CC(C2)C3)c1=O [Compound B93, 6-acetyl-8-(bicyclo[1.1.1]pentan-1-yl)-5-methyl-2-((5-(4-methylpiperazin-1-yl)pyridin-2-yl)amino)pyrido[2,3-d]pyrimidin-7(8H)-one]"
< 5.00,–,5.56,5.56,< 5.00,–,< 5.00,< 5.00,5.80,5.80,–,"Cc1c(C(=O)N(C)C)c(=O)n(C23CC(C2)C3)c2nc(NC3CC4CCC3C4)ncc12 (stereo not drawn) [Compound B158, 8-(bicyclo[1.1.1]pentan-1-yl)-2-(bicyclo[2.2.1]heptan-2-ylamino)-N,N,5-trimethyl-7-oxo-7,8-dihydropyrido[2,3-d]pyrimidine-6-carboxamide]"
5.39,–,7.01,7.01,5.55,5.55,5.55,5.55,8.12,8.12,–,"CC(=O)c1c(C)c2cnc(Nc3ccc(N4CCN(C)CC4)cc3)nc2n(C23CC(C2)C3)c1=O [Compound B96, 6-acetyl-8-(bicyclo[1.1.1]pentan-1-yl)-5-methyl-2-((4-(4-methylpiperazin-1-yl)phenyl)amino)pyrido[2,3-d]pyrimidin-7(8H)-one]"
